Where a name gives a salt, the structure may show the parent alone.
Tests used:
human NHE3 = target: T1, human NHE3 (Homo sapiens, UniProt P48764); test: Cell-based assay of NHE-3 activity (persistent inhibition), human; settings: human Persistence assay; for IC50: 60 min incubation, washout, recovery initiated 10 min after washout
T1 construct: host or cells: PS120 fibroblasts
T1 sequence (P48764 26-834): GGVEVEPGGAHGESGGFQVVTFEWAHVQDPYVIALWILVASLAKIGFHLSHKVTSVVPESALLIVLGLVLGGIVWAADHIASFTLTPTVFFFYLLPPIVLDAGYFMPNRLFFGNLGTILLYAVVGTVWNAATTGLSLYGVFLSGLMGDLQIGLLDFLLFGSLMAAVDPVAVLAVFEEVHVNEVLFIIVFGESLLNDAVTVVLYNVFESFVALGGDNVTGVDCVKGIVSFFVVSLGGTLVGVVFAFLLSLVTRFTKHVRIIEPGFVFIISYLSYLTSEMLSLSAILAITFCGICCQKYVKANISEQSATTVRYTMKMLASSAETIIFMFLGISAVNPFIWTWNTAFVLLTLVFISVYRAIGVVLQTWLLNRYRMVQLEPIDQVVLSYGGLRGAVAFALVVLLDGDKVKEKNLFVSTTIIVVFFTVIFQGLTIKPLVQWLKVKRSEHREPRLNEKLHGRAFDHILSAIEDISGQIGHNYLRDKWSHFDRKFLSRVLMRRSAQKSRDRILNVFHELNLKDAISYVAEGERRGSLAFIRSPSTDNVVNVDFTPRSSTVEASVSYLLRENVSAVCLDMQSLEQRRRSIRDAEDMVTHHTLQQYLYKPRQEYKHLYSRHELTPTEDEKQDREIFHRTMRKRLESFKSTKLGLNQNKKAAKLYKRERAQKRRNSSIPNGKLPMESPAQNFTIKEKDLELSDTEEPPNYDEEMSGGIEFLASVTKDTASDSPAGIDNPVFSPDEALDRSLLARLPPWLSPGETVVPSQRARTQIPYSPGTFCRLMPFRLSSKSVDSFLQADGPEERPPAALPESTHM
T1 sequence (Q99653 2-195 partner limits assumed): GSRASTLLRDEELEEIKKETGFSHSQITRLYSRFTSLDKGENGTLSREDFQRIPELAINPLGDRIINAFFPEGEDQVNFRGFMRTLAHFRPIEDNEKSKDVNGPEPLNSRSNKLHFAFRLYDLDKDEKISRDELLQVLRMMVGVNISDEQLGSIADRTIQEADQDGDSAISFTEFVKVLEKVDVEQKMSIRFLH
Procedure: The ability of compounds to inhibit human and rat NHE-3-mediated Na^+-dependent H^+ antiport after application and washout was measured using a modification of the pH sensitive dye method described above. PS120 fibroblasts stably expressing human NHE3 and NHERF2 were obtained from Mark Donowitz (Baltimore, Md.). Opossum kidney (OK) cells were obtained from the ATCC and propagated per their instructions. The rat NHE-3 gene was introduced into OK cells via electroporation, and cells were seeded into 96 well plates and grown overnight. Medium was aspirated from the wells, cells were washed once with NaCl-HEPES buffer (100 mM NaCl, 50 mM HEPES, 10 mM glucose, 5 mM KCl, 2 mM CaCl2, 1 mM MgCl2, pH 7.4), then overlayed with NaCl-HEPES buffer containing 0-30 μM test compound. After a 60 min incubation at room temperature, the test drug containing buffer was aspirated from the cells. Following aspiration, cells were washed once with NaCl-HEPES buffer without drug, then incubated for 30 min at 37° C. with NH4Cl-HEPES buffer (20 mM NH4Cl, 80 mM NaCl, 50 mM HEPES, 5 mM KCl, 2 mM CaCl2, 1 mM MgCl2, pH 7.4) containing 5 μM BCECF-AM. Cells were washed once with Ammonium free, Na^+-free HEPES (100 mM choline, 50 mM HEPES, 10 mM glucose, 5 mM KCl, 2 mM CaCl2. 1 mM MgCl2. pH 7.4) and incubated in the same buffer for 10 minutes at room temperature to lower intracellular pH. NHE-3-mediated recovery of neutral intracellular pH was initiated (10 min after compound washout) by addition of Na-HEPES buffer. […] Changes in intracellular pH were monitored using a FLIPR Tetra® (Molecular Devices, Sunnyvale, Calif.) by excitation at λex 439 to 505 nm, and measuring BCECF fluorescence at λem 538 nm. The initial rate of the fluorescence ratio change was used as a measure of NHE-mediated Na^+/H^+ activity, and reported as the change in fluorescence ratio per minute.

rat NHE-3 = target: T2, rat NHE-3 (Rattus norvegicus, UniProt P26433); test: Cell-based assay of NHE-3 activity (Pharmacological Test Example 1); settings: OK cells expressing rat NHE-3; 0-30 uM test compound, 5 uM EIPA; read-out: rat NHE-3 Average pIC50 (converted)
T2 construct: expressed in transfected cells; host or cells: Opossum kidney (OK) cells (ATCC), electroporated
How it was run: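 Na+-dependent H+ exchange tracked with the pH-sensitive dye BCECF in opossum kidney cells transiently expressing rat NHE-3. Intracellular acidification by NH4Cl prepulse, then 10 min in ammonium- and Na+-free HEPES, pH 7.4, room temperature. Initial rates averaged over 3-6 replicates give pIC50.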

T2 sequence (P26433 29-831): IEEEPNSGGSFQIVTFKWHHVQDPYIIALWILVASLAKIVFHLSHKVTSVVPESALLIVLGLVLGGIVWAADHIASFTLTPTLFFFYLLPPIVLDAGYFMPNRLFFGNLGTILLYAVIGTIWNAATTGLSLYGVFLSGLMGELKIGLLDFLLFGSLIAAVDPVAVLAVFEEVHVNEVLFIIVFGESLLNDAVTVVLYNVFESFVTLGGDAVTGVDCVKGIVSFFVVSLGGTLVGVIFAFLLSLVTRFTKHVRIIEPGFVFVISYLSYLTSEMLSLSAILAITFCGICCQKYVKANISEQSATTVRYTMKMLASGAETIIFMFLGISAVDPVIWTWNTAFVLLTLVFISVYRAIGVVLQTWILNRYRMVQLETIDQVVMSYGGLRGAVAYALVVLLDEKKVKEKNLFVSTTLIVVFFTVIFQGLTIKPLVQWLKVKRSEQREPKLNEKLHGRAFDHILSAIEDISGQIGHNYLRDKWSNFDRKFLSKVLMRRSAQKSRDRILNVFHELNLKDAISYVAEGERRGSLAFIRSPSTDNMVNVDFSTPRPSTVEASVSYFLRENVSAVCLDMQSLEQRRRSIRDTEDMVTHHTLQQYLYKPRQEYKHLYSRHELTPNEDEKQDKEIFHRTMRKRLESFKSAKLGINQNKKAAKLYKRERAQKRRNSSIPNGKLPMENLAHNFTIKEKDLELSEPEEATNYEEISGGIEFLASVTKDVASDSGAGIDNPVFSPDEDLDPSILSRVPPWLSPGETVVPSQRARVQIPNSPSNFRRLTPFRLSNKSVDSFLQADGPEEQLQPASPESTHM

Compound	% inhibition (human NHE3)	IC50 (human NHE3)	IC50 (rat NHE-3)
CN1Cc2c(Cl)cc(Cl)cc2[C@H](c2cccc(S(=O)(=O)NCCOCCOCCNC(=O)Nc3ccc(NC(=O)NCCOCCOCCNS(=O)(=O)c4cccc([C@@H]5CN(C)Cc6c(Cl)cc(Cl)cc65)c4)cc3)c2)C1 (single isomer, unassigned) [Example 203, (S or R)—N,N′-(2,2′-(2,2′-(2,2′-(1,4-phenylenebis(azanediyl))bis(oxomethylene)bis(azanediyl)bis(ethane-2,1-diyl))bis(oxy)bis(ethane-2,1-diyl))bis(oxy)bis(ethane-2,1-diyl))bis(3-((S or R)-6,8-dichloro-2-methyl-1,2,3,4-tetrahydroisoquinolin-4-yl)benzenesulfonamide) bis-hydrochloride salt]	C (>70%)	< 100 nM	< 100 nM
CN1Cc2c(Cl)cc(Cl)cc2[C@H](c2cccc(S(=O)(=O)NCCOCCOCCNC(=O)NCCCCNC(=O)NCCOCCOCCNS(=O)(=O)c3cccc([C@@H]4CN(C)Cc5c(Cl)cc(Cl)cc54)c3)c2)C1 (single isomer, unassigned) [Example 202, (S or R)—N,N′-(10,17-dioxo-3,6,21,24-tetraoxa-9,11,16,18-tetraazahexacosane-1,26-diyl)bis(3-((S)-6,8-dichloro-2-methyl-1,2,3,4-tetrahydroisoquinolin-4-yl)benzenesulfonamide) bis-hydrochloride salt]	C (>70%)	< 100 nM	< 100 nM
